Active and inactive are the calls of the source. Rule as the data show it, for most assays here: actives have a measured Kd and inactives only a lower limit.
Target: Casein kinase I isoform delta (Homo sapiens, UniProt P48730)
Also: in the data inactive means no Kd found up to 30 µM.

Casein kinase I isoform delta, sequence (P48730 whole entry, canonical isoform): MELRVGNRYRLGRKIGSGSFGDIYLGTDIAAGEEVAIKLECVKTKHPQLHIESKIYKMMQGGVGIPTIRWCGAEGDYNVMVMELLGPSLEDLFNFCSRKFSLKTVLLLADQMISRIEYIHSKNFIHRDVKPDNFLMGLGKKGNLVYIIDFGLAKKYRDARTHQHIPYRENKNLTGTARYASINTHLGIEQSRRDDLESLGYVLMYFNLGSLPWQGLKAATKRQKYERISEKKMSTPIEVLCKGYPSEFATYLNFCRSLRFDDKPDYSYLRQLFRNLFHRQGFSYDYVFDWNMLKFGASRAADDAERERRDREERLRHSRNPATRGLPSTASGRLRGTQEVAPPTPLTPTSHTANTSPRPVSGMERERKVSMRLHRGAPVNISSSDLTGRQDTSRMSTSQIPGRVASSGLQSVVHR

| SMILES | Kd |
| --- | --- |
| COc1ccc(-c2ccc3c(N4CCOC[C@@H]4C)nc(N4CCOC[C@@H]4C)nc3n2)cc1CO [AZD-8055] | > 30 µM (inactive) |
| Cc1ccc(NC(=O)c2ccc(CN3CC[C@H](N(C)C)C3)c(C(F)(F)F)c2)cc1Nc1nccc(-c2cncnc2)n1 [BAFETINIB] | > 30 µM (inactive) |
| CNC(=O)c1ccc(-c2cnc3ncc(Cc4ccc5ncccc5c4)n3n2)cc1F [CAPMATINIB] | > 30 µM (inactive) |
| CCc1cnn2c(NCc3ccc[n+]([O-])c3)cc(N3CCCC[C@H]3CCO)nc12 [DINACICLIB] | > 30 µM (inactive) |

Target: Serine/threonine-protein kinase N3 (Homo sapiens, UniProt Q6P5Z2)
Sequence (Q6P5Z2 whole entry): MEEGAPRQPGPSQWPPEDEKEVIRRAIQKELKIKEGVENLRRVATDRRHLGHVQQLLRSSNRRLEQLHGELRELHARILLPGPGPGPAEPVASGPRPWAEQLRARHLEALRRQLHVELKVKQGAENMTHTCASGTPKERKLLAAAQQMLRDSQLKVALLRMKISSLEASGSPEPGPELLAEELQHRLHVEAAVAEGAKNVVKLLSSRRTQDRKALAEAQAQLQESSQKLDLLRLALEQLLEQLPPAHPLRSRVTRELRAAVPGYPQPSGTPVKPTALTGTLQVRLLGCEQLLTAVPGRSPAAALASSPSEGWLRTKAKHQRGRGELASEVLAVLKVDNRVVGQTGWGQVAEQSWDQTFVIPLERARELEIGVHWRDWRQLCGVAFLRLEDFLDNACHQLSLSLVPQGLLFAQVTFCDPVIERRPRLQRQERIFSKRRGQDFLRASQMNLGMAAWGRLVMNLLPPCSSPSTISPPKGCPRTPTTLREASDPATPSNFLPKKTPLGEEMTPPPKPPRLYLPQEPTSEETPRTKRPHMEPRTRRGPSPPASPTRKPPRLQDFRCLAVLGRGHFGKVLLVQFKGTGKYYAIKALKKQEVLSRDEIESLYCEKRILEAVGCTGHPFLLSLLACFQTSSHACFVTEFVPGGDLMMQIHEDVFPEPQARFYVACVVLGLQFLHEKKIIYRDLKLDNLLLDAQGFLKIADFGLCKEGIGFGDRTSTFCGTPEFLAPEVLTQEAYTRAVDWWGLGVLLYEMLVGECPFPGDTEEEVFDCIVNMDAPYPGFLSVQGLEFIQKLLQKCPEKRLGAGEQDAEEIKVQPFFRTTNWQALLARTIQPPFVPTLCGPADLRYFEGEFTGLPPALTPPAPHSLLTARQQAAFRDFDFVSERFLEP

| SMILES | Kd |
| --- | --- |
| COc1ccc(-c2ccc3c(N4CCOC[C@@H]4C)nc(N4CCOC[C@@H]4C)nc3n2)cc1CO [AZD-8055] | > 30 µM (inactive) |
| Cc1ccc(NC(=O)c2ccc(CN3CC[C@H](N(C)C)C3)c(C(F)(F)F)c2)cc1Nc1nccc(-c2cncnc2)n1 [BAFETINIB] | > 30 µM (inactive) |
| CNC(=O)c1ccc(-c2cnc3ncc(Cc4ccc5ncccc5c4)n3n2)cc1F [CAPMATINIB] | > 30 µM (inactive) |
| CCc1cnn2c(NCc3ccc[n+]([O-])c3)cc(N3CCCC[C@H]3CCO)nc12 [DINACICLIB] | > 30 µM (inactive) |

Target: cAMP-dependent protein kinase catalytic subunit alpha (Homo sapiens, UniProt P17612)

| SMILES | Kd |
| --- | --- |
| COc1ccc(-c2ccc3c(N4CCOC[C@@H]4C)nc(N4CCOC[C@@H]4C)nc3n2)cc1CO [AZD-8055] | > 30 µM (inactive) |
| Cc1ccc(NC(=O)c2ccc(CN3CC[C@H](N(C)C)C3)c(C(F)(F)F)c2)cc1Nc1nccc(-c2cncnc2)n1 [BAFETINIB] | > 30 µM (inactive) |
| CNC(=O)c1ccc(-c2cnc3ncc(Cc4ccc5ncccc5c4)n3n2)cc1F [CAPMATINIB] | > 30 µM (inactive) |

Target: Ribosomal protein S6 kinase alpha-5 (Homo sapiens, UniProt O75582)
Sequence (O75582 whole entry): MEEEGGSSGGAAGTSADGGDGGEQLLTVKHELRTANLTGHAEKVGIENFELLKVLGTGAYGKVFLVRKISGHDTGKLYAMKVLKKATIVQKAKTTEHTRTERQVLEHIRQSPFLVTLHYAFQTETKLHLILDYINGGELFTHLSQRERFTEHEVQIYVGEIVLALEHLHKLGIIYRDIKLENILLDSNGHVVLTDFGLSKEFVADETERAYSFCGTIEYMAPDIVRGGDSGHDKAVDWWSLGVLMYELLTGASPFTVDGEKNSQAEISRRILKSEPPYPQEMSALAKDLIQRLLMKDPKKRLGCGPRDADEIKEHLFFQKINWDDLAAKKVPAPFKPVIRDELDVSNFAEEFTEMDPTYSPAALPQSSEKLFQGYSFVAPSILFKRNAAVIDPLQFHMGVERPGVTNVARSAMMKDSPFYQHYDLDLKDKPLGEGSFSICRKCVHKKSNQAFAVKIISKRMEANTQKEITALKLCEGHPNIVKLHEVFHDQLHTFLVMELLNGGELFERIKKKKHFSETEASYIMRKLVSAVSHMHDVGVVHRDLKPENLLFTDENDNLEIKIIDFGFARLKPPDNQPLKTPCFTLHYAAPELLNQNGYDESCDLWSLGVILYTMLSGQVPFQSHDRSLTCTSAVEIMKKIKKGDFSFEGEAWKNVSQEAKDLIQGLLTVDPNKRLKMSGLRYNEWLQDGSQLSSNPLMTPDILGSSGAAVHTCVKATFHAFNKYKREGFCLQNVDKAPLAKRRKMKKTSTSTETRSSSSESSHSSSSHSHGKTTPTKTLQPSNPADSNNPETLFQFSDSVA

| SMILES | Kd |
| --- | --- |
| COc1ccc(-c2ccc3c(N4CCOC[C@@H]4C)nc(N4CCOC[C@@H]4C)nc3n2)cc1CO [AZD-8055] | > 30 µM (inactive) |
| Cc1ccc(NC(=O)c2ccc(CN3CC[C@H](N(C)C)C3)c(C(F)(F)F)c2)cc1Nc1nccc(-c2cncnc2)n1 [BAFETINIB] | > 30 µM (inactive) |
| CNC(=O)c1ccc(-c2cnc3ncc(Cc4ccc5ncccc5c4)n3n2)cc1F [CAPMATINIB] | > 30 µM (inactive) |
| CCc1cnn2c(NCc3ccc[n+]([O-])c3)cc(N3CCCC[C@H]3CCO)nc12 [DINACICLIB] | > 30 µM (inactive) |

Target: T1, Serine/threonine-protein kinase Chk1 (Homo sapiens, UniProt O14757)
T1 sequence (O14757 whole entry): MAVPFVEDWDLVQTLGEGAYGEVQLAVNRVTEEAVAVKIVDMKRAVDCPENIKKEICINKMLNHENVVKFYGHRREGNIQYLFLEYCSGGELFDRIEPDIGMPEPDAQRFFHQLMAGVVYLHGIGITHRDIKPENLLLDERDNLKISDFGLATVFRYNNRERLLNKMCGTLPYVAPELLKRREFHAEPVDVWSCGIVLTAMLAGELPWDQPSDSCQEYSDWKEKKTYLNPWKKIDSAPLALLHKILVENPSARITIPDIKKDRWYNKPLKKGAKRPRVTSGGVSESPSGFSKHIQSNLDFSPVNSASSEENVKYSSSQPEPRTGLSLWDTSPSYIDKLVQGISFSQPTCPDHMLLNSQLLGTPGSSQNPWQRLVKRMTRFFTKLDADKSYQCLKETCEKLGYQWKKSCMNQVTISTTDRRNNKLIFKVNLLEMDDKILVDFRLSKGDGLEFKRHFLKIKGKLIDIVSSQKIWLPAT

| SMILES | Kd |
| --- | --- |
| COc1ccc(-c2ccc3c(N4CCOC[C@@H]4C)nc(N4CCOC[C@@H]4C)nc3n2)cc1CO [AZD-8055] | > 30 µM (inactive) |
| Cc1ccc(NC(=O)c2ccc(CN3CC[C@H](N(C)C)C3)c(C(F)(F)F)c2)cc1Nc1nccc(-c2cncnc2)n1 [BAFETINIB] | > 30 µM (inactive) |
| CNC(=O)c1ccc(-c2cnc3ncc(Cc4ccc5ncccc5c4)n3n2)cc1F [CAPMATINIB] | > 30 µM (inactive) |

Target: Serine/threonine-protein kinase ATR (Homo sapiens, UniProt Q13535)

| SMILES | Kd |
| --- | --- |
| COc1ccc(-c2ccc3c(N4CCOC[C@@H]4C)nc(N4CCOC[C@@H]4C)nc3n2)cc1CO [AZD-8055] | > 30 µM (inactive) |
| Cc1ccc(NC(=O)c2ccc(CN3CC[C@H](N(C)C)C3)c(C(F)(F)F)c2)cc1Nc1nccc(-c2cncnc2)n1 [BAFETINIB] | > 30 µM (inactive) |
| CNC(=O)c1ccc(-c2cnc3ncc(Cc4ccc5ncccc5c4)n3n2)cc1F [CAPMATINIB] | > 30 µM (inactive) |
| CCc1cnn2c(NCc3ccc[n+]([O-])c3)cc(N3CCCC[C@H]3CCO)nc12 [DINACICLIB] | > 30 µM (inactive) |

Target: T2, Pyridoxal kinase (Homo sapiens, UniProt O00764)
T2 sequence (O00764 whole entry): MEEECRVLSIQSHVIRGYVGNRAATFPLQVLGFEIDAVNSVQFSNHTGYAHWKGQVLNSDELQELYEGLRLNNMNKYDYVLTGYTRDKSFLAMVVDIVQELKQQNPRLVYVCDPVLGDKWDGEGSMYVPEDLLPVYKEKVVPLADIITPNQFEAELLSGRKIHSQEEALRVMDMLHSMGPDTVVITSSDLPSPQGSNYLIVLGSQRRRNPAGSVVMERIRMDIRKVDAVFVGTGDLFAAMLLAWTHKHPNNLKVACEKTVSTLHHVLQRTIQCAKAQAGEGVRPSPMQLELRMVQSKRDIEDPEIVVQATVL

| SMILES | Kd |
| --- | --- |
| COc1ccc(-c2ccc3c(N4CCOC[C@@H]4C)nc(N4CCOC[C@@H]4C)nc3n2)cc1CO [AZD-8055] | > 30 µM (inactive) |
| Cc1ccc(NC(=O)c2ccc(CN3CC[C@H](N(C)C)C3)c(C(F)(F)F)c2)cc1Nc1nccc(-c2cncnc2)n1 [BAFETINIB] | > 30 µM (inactive) |
| CNC(=O)c1ccc(-c2cnc3ncc(Cc4ccc5ncccc5c4)n3n2)cc1F [CAPMATINIB] | > 30 µM (inactive) |
| CCc1cnn2c(NCc3ccc[n+]([O-])c3)cc(N3CCCC[C@H]3CCO)nc12 [DINACICLIB] | > 30 µM (inactive) |

Target: Ribosomal protein S6 kinase alpha-3 (Homo sapiens, UniProt P51812)
Sequence (P51812 whole entry): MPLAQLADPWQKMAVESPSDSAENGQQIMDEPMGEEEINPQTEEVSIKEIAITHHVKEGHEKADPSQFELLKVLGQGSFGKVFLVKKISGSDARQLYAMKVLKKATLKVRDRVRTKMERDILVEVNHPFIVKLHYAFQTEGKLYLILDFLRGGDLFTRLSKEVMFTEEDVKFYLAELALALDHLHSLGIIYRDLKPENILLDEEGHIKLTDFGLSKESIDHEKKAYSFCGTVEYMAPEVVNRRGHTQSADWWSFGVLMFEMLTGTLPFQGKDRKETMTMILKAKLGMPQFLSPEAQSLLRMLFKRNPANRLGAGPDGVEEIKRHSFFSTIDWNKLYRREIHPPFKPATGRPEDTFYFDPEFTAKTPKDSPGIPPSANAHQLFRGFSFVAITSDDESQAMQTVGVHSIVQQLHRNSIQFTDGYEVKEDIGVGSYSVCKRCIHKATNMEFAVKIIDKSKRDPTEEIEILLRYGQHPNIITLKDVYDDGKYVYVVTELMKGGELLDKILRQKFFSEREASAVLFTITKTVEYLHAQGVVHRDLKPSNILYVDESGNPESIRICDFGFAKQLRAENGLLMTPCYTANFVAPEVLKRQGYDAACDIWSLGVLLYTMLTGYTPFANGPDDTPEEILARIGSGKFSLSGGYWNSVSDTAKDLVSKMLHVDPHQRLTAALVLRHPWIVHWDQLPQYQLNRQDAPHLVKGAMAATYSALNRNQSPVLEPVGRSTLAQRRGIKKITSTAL

| SMILES | Kd |
| --- | --- |
| COc1ccc(-c2ccc3c(N4CCOC[C@@H]4C)nc(N4CCOC[C@@H]4C)nc3n2)cc1CO [AZD-8055] | > 30 µM (inactive) |
| Cc1ccc(NC(=O)c2ccc(CN3CC[C@H](N(C)C)C3)c(C(F)(F)F)c2)cc1Nc1nccc(-c2cncnc2)n1 [BAFETINIB] | > 30 µM (inactive) |
| CNC(=O)c1ccc(-c2cnc3ncc(Cc4ccc5ncccc5c4)n3n2)cc1F [CAPMATINIB] | > 30 µM (inactive) |

Target: Serine/threonine-protein kinase Nek7 (Homo sapiens, UniProt Q8TDX7)
Sequence (Q8TDX7 whole entry): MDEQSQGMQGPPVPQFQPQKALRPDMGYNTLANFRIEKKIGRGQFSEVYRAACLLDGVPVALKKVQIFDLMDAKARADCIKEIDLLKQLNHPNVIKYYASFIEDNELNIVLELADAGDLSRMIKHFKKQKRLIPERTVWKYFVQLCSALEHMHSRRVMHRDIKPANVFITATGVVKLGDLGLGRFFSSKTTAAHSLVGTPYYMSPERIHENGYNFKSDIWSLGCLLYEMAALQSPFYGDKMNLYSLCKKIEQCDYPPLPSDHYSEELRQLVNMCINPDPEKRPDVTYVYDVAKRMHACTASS

| SMILES | Kd |
| --- | --- |
| COc1ccc(-c2ccc3c(N4CCOC[C@@H]4C)nc(N4CCOC[C@@H]4C)nc3n2)cc1CO [AZD-8055] | > 30 µM (inactive) |
| Cc1ccc(NC(=O)c2ccc(CN3CC[C@H](N(C)C)C3)c(C(F)(F)F)c2)cc1Nc1nccc(-c2cncnc2)n1 [BAFETINIB] | > 30 µM (inactive) |
| CNC(=O)c1ccc(-c2cnc3ncc(Cc4ccc5ncccc5c4)n3n2)cc1F [CAPMATINIB] | > 30 µM (inactive) |
| CCc1cnn2c(NCc3ccc[n+]([O-])c3)cc(N3CCCC[C@H]3CCO)nc12 [DINACICLIB] | > 30 µM (inactive) |

Target: T3, Protein kinase C zeta type (Homo sapiens, UniProt Q05513)
T3 sequence (Q05513 whole entry): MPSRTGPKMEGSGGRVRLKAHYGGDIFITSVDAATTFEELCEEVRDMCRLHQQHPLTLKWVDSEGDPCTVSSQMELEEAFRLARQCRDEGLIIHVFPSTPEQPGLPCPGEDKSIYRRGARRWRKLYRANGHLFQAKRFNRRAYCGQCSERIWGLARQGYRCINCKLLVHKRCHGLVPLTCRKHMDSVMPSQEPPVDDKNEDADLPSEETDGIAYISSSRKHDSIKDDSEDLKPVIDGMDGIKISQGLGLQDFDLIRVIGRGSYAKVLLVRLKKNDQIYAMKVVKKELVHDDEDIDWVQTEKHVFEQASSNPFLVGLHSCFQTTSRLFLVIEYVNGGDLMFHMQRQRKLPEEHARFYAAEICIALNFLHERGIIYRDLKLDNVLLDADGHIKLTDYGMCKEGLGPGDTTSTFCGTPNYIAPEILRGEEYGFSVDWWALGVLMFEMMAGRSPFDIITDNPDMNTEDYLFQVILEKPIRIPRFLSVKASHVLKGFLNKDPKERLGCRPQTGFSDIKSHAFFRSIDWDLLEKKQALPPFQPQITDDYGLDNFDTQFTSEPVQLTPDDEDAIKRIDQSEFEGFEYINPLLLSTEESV

| SMILES | Kd |
| --- | --- |
| COc1ccc(-c2ccc3c(N4CCOC[C@@H]4C)nc(N4CCOC[C@@H]4C)nc3n2)cc1CO [AZD-8055] | > 30 µM (inactive) |
| Cc1ccc(NC(=O)c2ccc(CN3CC[C@H](N(C)C)C3)c(C(F)(F)F)c2)cc1Nc1nccc(-c2cncnc2)n1 [BAFETINIB] | > 30 µM (inactive) |
| CNC(=O)c1ccc(-c2cnc3ncc(Cc4ccc5ncccc5c4)n3n2)cc1F [CAPMATINIB] | > 30 µM (inactive) |
| CCc1cnn2c(NCc3ccc[n+]([O-])c3)cc(N3CCCC[C@H]3CCO)nc12 [DINACICLIB] | > 30 µM (inactive) |

Target: Calcium/calmodulin-dependent protein kinase type II subunit gamma (Homo sapiens, UniProt Q13555)
Sequence (Q13555 whole entry): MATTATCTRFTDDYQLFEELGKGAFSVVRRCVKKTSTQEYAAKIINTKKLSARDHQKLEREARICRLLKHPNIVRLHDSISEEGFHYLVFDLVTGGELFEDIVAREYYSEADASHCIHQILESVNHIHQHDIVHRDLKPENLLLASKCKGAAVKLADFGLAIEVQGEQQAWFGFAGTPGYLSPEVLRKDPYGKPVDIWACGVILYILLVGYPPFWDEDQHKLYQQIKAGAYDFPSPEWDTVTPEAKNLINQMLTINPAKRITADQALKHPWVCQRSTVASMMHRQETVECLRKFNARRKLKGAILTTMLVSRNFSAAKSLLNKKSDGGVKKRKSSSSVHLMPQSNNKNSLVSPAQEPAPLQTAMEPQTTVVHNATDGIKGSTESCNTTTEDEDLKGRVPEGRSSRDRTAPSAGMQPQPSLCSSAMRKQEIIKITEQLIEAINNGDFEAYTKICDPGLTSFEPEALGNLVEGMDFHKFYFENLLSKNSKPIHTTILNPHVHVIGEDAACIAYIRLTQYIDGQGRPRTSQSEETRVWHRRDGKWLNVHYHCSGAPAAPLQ

| SMILES | Kd |
| --- | --- |
| COc1ccc(-c2ccc3c(N4CCOC[C@@H]4C)nc(N4CCOC[C@@H]4C)nc3n2)cc1CO [AZD-8055] | > 30 µM (inactive) |
| Cc1ccc(NC(=O)c2ccc(CN3CC[C@H](N(C)C)C3)c(C(F)(F)F)c2)cc1Nc1nccc(-c2cncnc2)n1 [BAFETINIB] | > 30 µM (inactive) |
| CNC(=O)c1ccc(-c2cnc3ncc(Cc4ccc5ncccc5c4)n3n2)cc1F [CAPMATINIB] | > 30 µM (inactive) |
| CCc1cnn2c(NCc3ccc[n+]([O-])c3)cc(N3CCCC[C@H]3CCO)nc12 [DINACICLIB] | > 30 µM (inactive) |

Target: Dual specificity protein kinase CLK1 (Homo sapiens, UniProt P49759)
Sequence (P49759 whole entry): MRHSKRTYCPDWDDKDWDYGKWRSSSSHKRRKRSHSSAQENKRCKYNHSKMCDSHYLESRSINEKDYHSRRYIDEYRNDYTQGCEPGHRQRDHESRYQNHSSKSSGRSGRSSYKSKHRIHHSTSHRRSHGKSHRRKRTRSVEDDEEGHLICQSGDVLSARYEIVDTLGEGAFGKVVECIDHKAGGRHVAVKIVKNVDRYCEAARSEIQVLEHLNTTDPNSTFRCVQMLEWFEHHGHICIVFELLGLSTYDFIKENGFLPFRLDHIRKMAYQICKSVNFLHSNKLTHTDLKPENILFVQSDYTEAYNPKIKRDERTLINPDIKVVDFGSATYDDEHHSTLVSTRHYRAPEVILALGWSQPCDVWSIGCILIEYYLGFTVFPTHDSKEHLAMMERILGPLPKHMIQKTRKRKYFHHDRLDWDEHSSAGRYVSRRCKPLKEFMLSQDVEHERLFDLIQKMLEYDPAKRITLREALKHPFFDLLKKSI

| SMILES | Kd |
| --- | --- |
| COc1ccc(-c2ccc3c(N4CCOC[C@@H]4C)nc(N4CCOC[C@@H]4C)nc3n2)cc1CO [AZD-8055] | > 30 µM (inactive) |
| Cc1ccc(NC(=O)c2ccc(CN3CC[C@H](N(C)C)C3)c(C(F)(F)F)c2)cc1Nc1nccc(-c2cncnc2)n1 [BAFETINIB] | > 30 µM (inactive) |
| CNC(=O)c1ccc(-c2cnc3ncc(Cc4ccc5ncccc5c4)n3n2)cc1F [CAPMATINIB] | > 30 µM (inactive) |
| CCc1cnn2c(NCc3ccc[n+]([O-])c3)cc(N3CCCC[C@H]3CCO)nc12 [DINACICLIB] | 0.714 µM (active) |

— ChEMBL document CHEMBL3991601, “The target landscape of clinical kinase drugs” (Science, 2017)
